From patent US20090326008A1, “NF-kappa B Inhibitor” (priority 2006, published 2009)

How the values were obtained:
Type in all cases: cell-based, human
[1] = system: NF-κB; experiment: NF-kappaB reporter assay (pNF-kappaB-SEAP) in IL-1β-stimulated MKN-45 cells; conditions: IL-1β 2 ng/mL for 6 hours, DMSO (0.05%) control = 1.00, triplicate
Method: pNF-kappaB-SEAP was obtained from Clonetech Laboratories Inc.
Cryopreserved MKN-45 cells (product of JCRB (Japanese Collection of Research Bioresources)) were thawed and cultured in a standard medium in an incubator (37° C., 5% CO2). Every three to five days, the cells were recovered by treatment with Trypsin-EDTA, then adequately diluted and subcultured. MKN-45 cells subcultured two or more times with a survival rate of 95% or more were used in each experiment.
The subcultured MKN-45 cells were harvested using Trypsin-EDTA solution, and the number of viable cells was counted. The cells were suspended in a standard medium to yield a 1.5×10^5 cells/mL suspension. A 24-well plate was seeded with 500 μL/well of the cell suspension, and the cells were cultured in an incubator (37° C., 5% CO2).
The day after seeding, transfection was performed according to the following protocol.
(4.1) Preparation of Plasmid Solution 4 μL of 0.1 μg/μL pNFkappaB-SEAP was placed into each well and diluted with 50 μL of OPTI-MEM I (product of Invitrogen Japan K.K.) by mixing by inversion.
1 μL of Lipofectamine 2000 reagent (product of Invitrogen) was placed into each well and diluted with 50 μL of OPTI-MEM I (product of Life Technologies Inc.) by mixing by inversion. The mixture was allowed to stand at room temperature for 5 to 10 minutes to prepare a Lipofectamine dilution.
The plasmid solution and the Lipofectamine dilution were mixed by inversion and allowed to stand at room temperature for 20 to 30 minutes to prepare a transfection mixture.
The culture medium was removed from the 24-well plate by suction. While care was taken not to dry the subcultured MKN-45 cells, the inner surface of the wells was washed with 1 mL/well of PBS. After the medium was replaced with 500 μL/well of OPTI-MEM I (product of Life Technologies Inc.), 100 μL/well of the transfection mixture was added, and the cells were cultured in a incubator (37° C., 5% CO2). After about 5 hours of incubation, the medium was replaced with a standard medium, and the cells were further cultured in a CO2 incubator (37° C., 5% CO2) until the following day.
On the following morning, the culture medium supernatant was removed by suction and replaced with 1 mL/well of the test compound solution or control solution diluted with a standard medium. The cells were cultured in a CO2 incubator (37° C., 5% CO2) for 1 hour. Each experiment was performed in triplicate.
200 ng/mL IL-1β was added in an amount of 10 μL/well (final concentration: 2 ng/mL), and the cells were cultured in a CO2 incubator (37° C., 5% CO2) for 6 hours.
A reporter assay was performed using Reporter Assay Kit-SEAP (product of Toyobo Co.) according to the manufacturer's protocol.
More specifically, 500 μL of the culture broth was transferred into a tube and centrifuged at 15,000 rpm for 5 minutes at 4° C. The supernatant was transferred into a 96-well white plate. The positive control included in the Reporter Assay Kit-SEAP, and a standard medium as a blank control were each added in an amount of 20 μL/well to the 96-well white plate. Further, an inhibitor for inhibiting the AP activity of the MKN-45 cells was added in an amount of 20 μL/well. After sealing the plate, the contents were mixed well. The plate was placed into a CO2 incubator (37° C., 5% CO2) and allowed to stand for 30 minutes. Subsequently, the plate was allowed to stand on ice for 1 minute, followed by addition of 160 μL/well of Lumi-Phos Plus (a chemiluminescent substrate, product of Lumigen Inc.). The plate was sealed again and placed in a light-shielded state into a CO2 incubator (37° C., 5% CO2). After the plate was allowed to stand for 15 to 30 minutes, luminescence was measured for about 5 to about 10 seconds using a luminometer.
The results of the reporter assay were expressed as Percent Control (or Inhibition), calculated according to the following formulae. The luminescence of each sample was calculated by subtracting the average of blank samples.

[2] = system: TNFα; experiment: Relative TNFα mRNA expression in IL-1β-stimulated MKN-45 cells (real-time PCR); conditions: IL-1β-stimulated DMSO-treated cells = 100%, ACTB reference
Method: (§1) RNA was extracted from the cells used in Example 2 according to the manufacturer's protocol for ABI Prism 6100 Nucleic Acid PrepStation (a nucleic acid isolation system, product of Applied Biosystems). More specifically, after removal of the culture supernatant and washing with 1 mL of PBS, 250 μL of Nucleic Acid Purification Lysis Solution (Part No. 4305895, Applied Biosystems) was added, and then agitated using a shaker for 2 to 3 minutes. The Lysis Solution containing the cell lysate was collected, and the total amount was transferred to the wells of RNA Purification Tray (Part No. 4305673, Applied Biosystems), which had been pre-wet with 40 μL of Nucleic Acid Purification Wash Solution I (Part No. 4305891, Applied Biosystems) beforehand. Aspiration (20% pressure) was performed for 2 minutes to adsorb the sample onto the RNA Purification Tray, followed by sequentially adding and aspirating (20% pressure, 2 min.) 500 μL of Wash Solution I, Nucleic Acid Purification (Part No. 4305891, Applied Biosystems), 400 μL of Wash Solution II, Nucleic Acid Purification (Part No. 4305890, product of Applied Biosystems), 400 μL of the Wash Solution II, and 300 μL of the Wash Solution II in that order. Aspiration (90% pressure) was performed for 5 minutes to remove the water content from the RNA Purification Trays. After addition of 150 μL of Elution Solution, Nucleic Acid Purification (Part No. 4305893, product of Applied Biosystems), aspiration (20% pressure) was performed for 2 minutes, while collecting the outflow. This was used as collected RNA solution.
(§2) Absorbance of the collected RNA solution at 260 nm was measured using a microplate spectrophotometer (“SpectraMax Plus”, product of Molecular Devices) with an analysis software (“SOFTmaxPRO ver.3.1.2”, product of Molecular Devices), and the RNA concentration was determined from the absorbance. Likewise, absorbance at 280 nm was measured and the purity of the RNA was determined using the analysis software.
(§3) cDNA was synthesized according to the manufacturer's protocol for TaqMan® Reverse Transcription Reagents (Part No. N808-0234, product of Applied Biosystems). More specifically, about 0.5 μg of RNA, 2.5 μL of 10×RT buffer, 5.5 μL of MgCl2 solution, 5 μL of dNTP mixture, 1.25 μL of random hexamer (primers), 0.5 μL of RNase inhibitor, and 0.63 μL of MultiScribe Reverse Transcriptase (product of Applied Biosystems) were added to each collected RNA sample in a tube, and DEPC-treated water was added to make a total volume of 25 μL and stirred. A reaction consisting of 25° C. for 10 minutes, 48° C. for 30 minutes, and 95° C. for 5 minutes was performed using a PCR thermal cycler (“TaKaRa PCR Thermal Cycler Dice”, product of Takara Bio Inc.) to prepare a cDNA solution.
(§4) PCR was performed according to the manufacturer's protocol for TaqMan® Gene Expression Assays (product of Applied Biosystems). More specifically, 5 μL of TaqMan® Fast Universal PCR Master Mix (product of Applied Biosystems), 0.5 μL of TaqMan® Gene Expression Assays for the target gene (gene-specific probe and primer sets, product of Applied Biosystems), and 4.5 μL of the above-obtained cDNA solution were added to each sample and stirred. A PCR reaction consisting of heating at 95° C. for 20 seconds, followed by 40 cycles consisting of heating at 95° C. for 3 seconds and annealing and extension at 60° C. for 30 seconds was performed using a real-time PCR device (“Applied Biosystems 7500 Real-Time PCR System”) with SDS v1.4 Software (product of Applied Biosystems). Threshold cycle (Ct) values were calculated using the software.
(§5) The Assay IDs of the TaqMan® Gene Expression Assays for the target genes used are as follows:
(§6) The expression level of each gene was determined according to the following formula using the level of ACTB as a reference standard.
(§7) (Relative mRNA expression level)=2̂−{(Ct value of the target gene)−(Ct value of ACTB)} […]

[3] = system: COX2; experiment: Relative COX2 mRNA expression in IL-1β-stimulated MKN-45 cells (real-time PCR); conditions: IL-1β-stimulated DMSO-treated cells = 100%, ACTB reference
Method: as §1, §2, §3, §4, §5, §6, §7

[4] = system: IL-8; experiment: Relative IL-8 mRNA expression in IL-1β-stimulated MKN-45 cells (real-time PCR); conditions: IL-1β-stimulated DMSO-treated cells = 100%, ACTB reference
Method: as §1, §2, §3, §4, §5, §6, §7

Row | SMILES | NF-kappaB reporter (SEAP luminescence) IL-1b(+) mean, relative to control [1] | TNFa relative mRNA expression level, Mean [2] [%] | COX2 relative mRNA expression level, Mean [3] [%] | IL-8 relative mRNA expression level, Mean [4] [%]
1 | COc1ccc(CC2SC(=O)NC2=O)c2c1N(CCCC(=O)Nc1ccccc1)C(=O)CC2 (centres unmarked) [Test Compound 608] | 0.71 | 30.8 | 42.4 | 36.5
2 | COc1ccc(CC2SC(=O)NC2=O)c2c1N(CC(=O)Nc1ccc(C(F)(F)F)cc1)C(=O)CC2 (centres unmarked) [Test Compound 612] | 0.67 | 31.1 | 33.4 | 41.8
3 | CCNC(=O)CCCN1C(=O)CCc2c(CC3SC(=O)NC3=O)ccc(OC)c21 (centres unmarked) [Test Compound 613] | 0.86 | 94.0 | 112.4 | 91.5
4 | Cc1ccc(CC(=O)N2CCC(CCN3C(=O)CCc4c(CC5SC(=O)NC5=O)cccc43)CC2)cc1 (centres unmarked) [Test Compound 616] | 0.57 | 31.4 | 26.3 | 35.3
5 | COc1ccc(CC2SC(=S)NC2=O)c2c1N(Cc1ccc(C(C)(C)C)cc1)C(=O)CC2 (centres unmarked) [Test Compound 914] | 0.53 | 66.7 | 32.9 | 61.9
6 | COc1ccc(CC2SC(=S)NC2=O)c2c1N(Cc1ccc3ccccc3c1)C(=O)CC2 (centres unmarked) [Test Compound 971] | 0.56 | 63.4 | 30.8 | 55.9
7 | COc1ccc(CC2SC(=S)NC2=O)c2c1N(CC1CC1)C(=O)CC2 (centres unmarked) [Test Compound 980] | 0.63 | 98.0 | 53.8 | 79.4
8 | COc1ccc(CC2SC(=S)NC2=O)c2c1N(CCOc1ccccc1)C(=O)CC2 (centres unmarked) [Test Compound 981] | 0.68 | 75.7 | 37.8 | 70.4
9 | Cc1ccc(CN2C(=O)CCc3c(CC4SC(=S)NC4=O)cccc32)cc1 (centres unmarked) [Test Compound 993] | 0.59 | 46.8 | 27.6 | 45.6
10 | O=C1NC(=S)SC1Cc1ccc2c(c1)CCC(=O)N2Cc1ccc(-c2ccccc2)cc1 (centres unmarked) [Test Compound 995] | 0.66 | 29.3 | 28.1 | 38.3
11 | O=C1NC(=S)SC1Cc1cccc2c1CCC(=O)N2Cc1ccc2ccccc2c1 (centres unmarked) [Test Compound 996] | 0.43 | 41.3 | 31.3 | 50.1
